Measured values taken from US20180369186A1, “METHOD FOR MODULATING AUTOPHAGY AND APPLICATIONS THEREOF” (JAWAHARLAL NEHRU CENTRE FOR ADVANCED SCIENTIFIC RESEARCH, priority 2015, published 2018).

Experiments:
[1] = tested on: yeast cells; experiment: Yeast growth assay (WT EGFP cells); assay type: cell-based, S. cerevisiae; conditions: 50 μM
Description: Growth assays: In a 384 well plate, appropriate yeast strains are seeded (A600˜0.07) with and without drugs and incubated (80 μl, 30° C. and 420 rpm) in a multiplate reader (Varioskan Flash, Thermo Scientific) for 48 h with automatic absorbance (A600) recording every 20 min. Growth curves are plotted and analyzed using GraphPad Prism.
Appropriate yeast strains are seeded (A600 ˜0.07) with or without drugs in a 384-well plate and incubated (420 rpm, 30° C. and 80 μl) in a multiplate reader (Varioskan Flash, Thermo Scientific) for 48 h that records absorbance (A600) automatically for every 20 min. Growth curves are plotted using GraphPad Prism.

[2] = tested on: LC3B-II; experiment: LC3 processing assay in HeLa cells; assay type: cell-based, human
Description: For EGFP-α-synuclein degradation assay, equal numbers of sub-confluent SH-SY5Y cells are seeded in 6 well dishes and allowed to attach for 24 h. Cells are transfected with EGFP-α-synuclein plasmid using Lipofectamine 2000 (Life technologies) and allowed to express for 24 h.
After treatments, cells are collected in Laemmli buffer to perform LC3 processing assay, P70S6K, GSK3β and 4E-BP1 immunoblotting. To validate EGFP-α-synuclein degradation by 6-Bio, treated cells are scraped and collected in growth medium. After washing with phosphate buffer, pellets are lysed in Laemmli buffer and boiled for 10 min.
Samples are electrophoresed on SDS-PAGE (8-15%) and then transferred onto PVDF (Bio-Rad) membrane using Transblot turbo (Bio-Rad). Transferred blots are stained with Ponceau S, probed with appropriate primary antibodies overnight and subsequently horseradish peroxidase conjugated secondary antibody. Signals are developed using enhanced chemiluminescence substrate (Clarity, Bio-Rad), imaged using a gel documentation system (G-Box, Syngene) and bands are quantified using image software (NIH). (FIGS. 4F and 5A)

[3] = Open field test in MPTP mice; assay type: in vivo; conditions: 5 mg/kg
Description: All the behavioural experiments are done on 3-4 month old, male C57/B16 mice. Experimenters are blind to the drug injected animals. Experimenters handle mice used for behavioral experiments for 3 consecutive days prior to the training paradigm. Behavioral experiments are designed in an order of low to high stress activity for mice. Therefore, Open Field Test is conducted in forenoon while rotarod is performed in the afternoon.
Mice were habituated to the behaviour room for 15 minutes every day before start of experiments. The light intensity is maintained at 100 lux throughout the experiment. Mice are weighed every day before training or test to ensure their good health. Mice are randomly allocated into three treatment cohorts: placebo control, MPTP and 6-Bio. Data is plotted using GraphPad prism 5 software.
Open field arena (50 cm×50 cm×45 cm) is custom-made (JNCASR) using plywood and the internal surface was coated with white polish. Mice are trained in open field for 2 consecutive days prior to drug injection. […] The activity is video recorded (SONY® color video camera, Model no. SSC-G118) using a software (SMART v3.0.04 from Panlah, Harvard Apparatus, USA). […] Distance travelled is analyzed offline by an experimenter who was not involved in performing the experiment.

[4] = tested on: SH-SY5Y cells overexpressing EGFP-α-synuclein; experiment: Cell viability of SH-SY5Y cells overexpressing α-synuclein (CellTitre-Glo); assay type: cell-based, human
Description: SH-SY5Y cells are seeded on a 96 well plate and transfected with GFP-SNCA only and/or is cotransfected with shRNA GSK3B and GFP-SNCA. To cells, the drugs were added (24 h) after 48 h of transfection. Then, the cell viability was measured using the CellTitre-Glo® (Promega) and luminescence was measured using Varioskan Flash (Thermo Scientific).
SH-SY5Y cells are seeded onto tissue culture treated 96 well plate and then transfected with EGFP-α-synuclein only and/or co-transfected with siRNA. To cells, appropriate drugs are added (24 h) after 48 h of transfection. Using luminescence-based CellTitre-Glo® (Promega) kit, the cell viability is assayed using automated microtitre plate reader Varioskan Flash (Thermo Scientific) […].

[5] = tested on: p62; experiment: p62 co-localization with mRFP-MAP1LC3B in HeLa cells; assay type: cell-based, human
Description: Appropriate number of cells are plated on top of coverslips placed in 65 mm cell culture dishes for transfection. Transfected cells are divided into different treatment groups. Post treatment, cells are washed with PBS and fixed in 4% paraformaldehyde and permeabilized using 0.25% Triton X-100, Overnight incubation with Anti-p62/SQSTM1 (rabbit polyclonal, #PM045), Anti-EEA1 (rabbit polyclonal, CST #3288) is done at 4° C. Excess antibody is washed with PBS and coverslips are incubated with Atto-633 (goat anti-rabbit IgG, Sigma #41176). The coverslips are mounted with […] antifade reagent (H-1000/H-1200, Vector laboratories). Imaging for HeLa cells is carried out using Delta vision microscope (Olympus 60×/1.42, Plan ApoN, excitation and emission filter Cy5, FITC and TRITC, polychroic Quad).
ImageJ software (NIH) is used to calculate the mean intensity. Images are opened using the split channel plugin. Co-localization plugin in the analysis tools is used to obtain the colocalized area between two channels as a separate window. The intensity is calculated using the measure plugin in analysis tools.

[6] = tested on: EGFR; experiment: EGFR trafficking (endocytosis-mediated EGFR degradation); assay type: cell-based, human; conditions: HeLa; 100 ng/ml EGF; 0-3 hours
Description: HeLa cells are plated on 6 well plates and allowed to attach on the surface. The cells are washed with PBS and then starved in DMEM (serum free media) for 3 hours. Pre-treatment with compounds is carried out for 1 hour, following which they are pulsed with 100 ng/ml of EGF and samples are collected at 0, 1, 2 and 3 hours.

Row | SMILES | effect on growth of yeast cells [1] | LC3-II levels ([2]; 2 h) | LC3B-II accumulated in presence of E64D and Pepstatin A ([2]; with lysosomal protease inhibitors, vs 6-Bio only) | distance travelled, Co versus MPTP ([3]; MPTP+Co, day 13) | distance travelled, Post versus MPTP ([3]; administered after 48 h MPTP) | cell viability of SNCA over expressed SH-SY5Y cells ([4]; SNCA over expressed for 72 h) | cytoprotection when GSK3B expression is silenced ([4]; shRNA GSK3B silenced, SNCA over expressed) | p62 accumulation relative to mRFP-MAP1LC3B-positive compartments [5] | degradation of EGFR over time upon EGF treatment [6] | increase in cell viability, untreated vs treated ([4]; α-syn over expressed cells, 5 μM) [fold] | cell viability, XCT 790 vs XCT 790+3-MA ([4]; α-syn over expressed cells, with 3-MA) [fold]
1 | O=C1Nc2cc(Br)ccc2/C1=C1/Nc2ccccc2/C1=N\O [6-Bio, (2′Z,3′E)-6-Bromoindirubin-3′-oxime] | does not affect the growth of yeast cells | increases LC3-II | significantly more | increased dramatically | not protected | significantly increased | marginal cytoprotection |  |  |  | 
2 | Cc1ccc(S(=O)(=O)/C=C/C#N)cc1 [Bay11, 3-[(4-methylphenyl)sulfonyl]-(2E)-propenenitrile] |  |  |  |  |  |  |  | outside | no difference in the degradation of EGFR |  | 
3 | COc1cc(C=C(C#N)C(=O)Nc2nnc(C(F)(F)F)s2)ccc1OCc1ccc(C(F)(F)F)cc1C(F)(F)F [XCT 790, 3-[4-(2,4-Bis-trifluoromethylbenzyloxy)-3-methoxyphenyl]-2-cyano-N-(5-trifluoromethyl-1,3,4-thiadiazol-2-yl)acrylamide] | does not affect the yeast growth |  |  |  |  |  |  |  |  | ~4 | ~4
